Literature values as cited in patent publication US20110306626A1, “IMIDAZOLINONE DERIVATIVES AS CGRP RECEPTOR ANTAGONISTS” (priority 2008, published 2011).
Ends that are not written are not given here.

Key:
middle meningeal artery = details: rats, electrical stimulation of the dura mater, prior administration (Williamson et al. 1997)
facial blood flow [1] = details: rat, trigeminal ganglion stimulation (Escott et al. 1995)
[2] = tested on: acute attacks of migraine; details: clinical trials (Olesen et al. 2004)
[3] = tested on: headache induced by CGRP infusion; details: control group (Petersen et al. 2005)
facial blood flow [4] = details: marmoset, electrical stimulation of the trigeminal ganglion (Doods et al. 2000)

| Compound | increase of the diameter of the middle meningeal artery (middle meningeal artery) | increase of facial blood flow (facial blood flow [1]) | treatment of acute attacks of migraine [2] | prevention of headache induced by CGRP infusion [3] | increase in facial blood flow (facial blood flow [4]) |
| --- | --- | --- | --- | --- | --- |
| CGRP(8-37): a peptide CGRP antagonist; fragment of CGRP that lacks seven N-terminal amino acid residues (VTHRLAGLLSRSGGVVKNNFVPTNVGSKAF; ends and bridges not checked; UniProt P06881 90-119, looked up, fragment) | blocked | inhibited | – | – | – |
| NCCCC[C@H](NC(=O)[C@@H](Cc1cc(Br)c(O)c(Br)c1)NC(=O)N1CCC(N2Cc3ccccc3NC2=O)CC1)C(=O)N1CCN(c2ccncc2)CC1 [BIBN4096BS] | – | – | effective in treating acute attacks of migraine | able to prevent headache induced by CGRP infusion | could be blocked |
